Laboratory results from ChEMBL document CHEMBL3991601, “The target landscape of clinical kinase drugs” (Science, 2017).
Calls of active or inactive are those of the source. For most assays here, no stated cut-off is given here; in the data, actives have a measured Kd and inactives only a lower limit.

Target: T1, Cyclin-G-associated kinase (Homo sapiens, UniProt O14976)
T1 sequence (O14976 whole entry): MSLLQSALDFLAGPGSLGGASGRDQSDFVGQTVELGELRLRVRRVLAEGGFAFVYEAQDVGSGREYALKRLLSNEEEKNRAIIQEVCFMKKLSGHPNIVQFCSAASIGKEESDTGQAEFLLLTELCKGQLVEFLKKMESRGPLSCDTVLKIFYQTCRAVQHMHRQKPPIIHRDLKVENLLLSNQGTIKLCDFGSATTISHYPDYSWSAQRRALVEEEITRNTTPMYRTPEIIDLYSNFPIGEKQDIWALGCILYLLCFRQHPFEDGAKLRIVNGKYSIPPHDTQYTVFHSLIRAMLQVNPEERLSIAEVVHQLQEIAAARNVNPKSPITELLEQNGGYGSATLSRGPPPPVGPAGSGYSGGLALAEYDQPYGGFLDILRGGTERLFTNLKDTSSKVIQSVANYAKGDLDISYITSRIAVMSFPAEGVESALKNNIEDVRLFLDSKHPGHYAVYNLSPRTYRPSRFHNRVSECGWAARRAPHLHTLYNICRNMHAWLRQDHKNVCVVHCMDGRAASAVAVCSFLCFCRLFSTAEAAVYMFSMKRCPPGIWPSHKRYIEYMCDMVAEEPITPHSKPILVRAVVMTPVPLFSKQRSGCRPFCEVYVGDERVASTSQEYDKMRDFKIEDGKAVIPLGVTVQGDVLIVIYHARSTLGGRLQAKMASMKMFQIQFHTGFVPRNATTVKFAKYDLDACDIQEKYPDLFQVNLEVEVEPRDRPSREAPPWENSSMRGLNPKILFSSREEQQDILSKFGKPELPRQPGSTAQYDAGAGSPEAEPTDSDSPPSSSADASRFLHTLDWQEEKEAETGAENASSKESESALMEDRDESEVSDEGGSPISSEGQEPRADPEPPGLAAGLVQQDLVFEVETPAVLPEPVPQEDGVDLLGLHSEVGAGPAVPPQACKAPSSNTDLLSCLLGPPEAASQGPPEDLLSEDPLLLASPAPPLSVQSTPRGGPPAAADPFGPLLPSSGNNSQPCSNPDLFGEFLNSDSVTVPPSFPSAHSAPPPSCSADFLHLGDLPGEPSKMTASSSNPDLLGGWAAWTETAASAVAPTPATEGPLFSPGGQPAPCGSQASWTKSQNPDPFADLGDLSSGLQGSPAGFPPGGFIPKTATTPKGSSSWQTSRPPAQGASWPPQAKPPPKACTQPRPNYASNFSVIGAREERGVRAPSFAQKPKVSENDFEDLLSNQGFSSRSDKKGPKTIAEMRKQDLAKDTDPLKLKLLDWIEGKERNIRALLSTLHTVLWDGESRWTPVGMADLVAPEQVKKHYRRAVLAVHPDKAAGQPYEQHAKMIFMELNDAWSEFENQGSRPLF

SMILES	Kd
Cc1ccc(NC(=O)c2ccc(CN3CC[C@H](N(C)C)C3)c(C(F)(F)F)c2)cc1Nc1nccc(-c2cncnc2)n1 [BAFETINIB]	> 30 µM (inactive)
Cc1cc2c(F)c(Oc3ncnn4cc(OC[C@@H](C)OC(=O)[C@H](C)N)c(C)c34)ccc2[nH]1 [BRIVANIB ALANINATE]	> 30 µM (inactive)
CNC(=O)c1ccc(-c2cnc3ncc(Cc4ccc5ncccc5c4)n3n2)cc1F [CAPMATINIB]	> 30 µM (inactive)
Cc1nc(N)sc1-c1ccnc(Nc2ccc(N3CCOCC3)cc2)n1 [CYC-116]	0.196 µM (active)
COC(=O)[C@@]1(O)C[C@H]2O[C@]1(C)n1c3ccccc3c3c4c(c5c6ccccc6n2c5c31)C(=O)NC4 [K-252A]	1.27 µM (active)
O=C(Nc1cccc(Cl)c1)Nc1ncc(CCNc2ncnc3ccsc23)s1 [SNS-314]	> 30 µM (inactive)
Nc1nc(N)c2nc(-c3cccc(O)c3)c(-c3cccc(O)c3)nc2n1 [TG100-115]	> 30 µM (inactive)

Target: T2, Bifunctional phosphoribosylaminoimidazole carboxylase/phosphoribosylaminoimidazole succinocarboxamide synthetase (Homo sapiens, UniProt P22234)
T2 sequence (P22234 whole entry): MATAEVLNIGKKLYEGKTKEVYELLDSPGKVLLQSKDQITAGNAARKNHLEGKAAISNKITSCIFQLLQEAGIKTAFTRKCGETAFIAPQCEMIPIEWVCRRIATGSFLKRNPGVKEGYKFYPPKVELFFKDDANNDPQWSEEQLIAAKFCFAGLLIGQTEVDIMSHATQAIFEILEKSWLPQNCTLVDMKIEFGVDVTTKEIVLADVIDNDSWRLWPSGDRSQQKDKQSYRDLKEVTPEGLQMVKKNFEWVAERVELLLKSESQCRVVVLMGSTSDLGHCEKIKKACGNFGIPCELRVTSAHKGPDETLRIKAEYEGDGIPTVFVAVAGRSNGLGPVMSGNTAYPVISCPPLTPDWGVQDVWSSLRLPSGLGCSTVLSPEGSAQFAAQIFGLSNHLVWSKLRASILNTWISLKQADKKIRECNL

SMILES	Kd
Cc1ccc(NC(=O)c2ccc(CN3CC[C@H](N(C)C)C3)c(C(F)(F)F)c2)cc1Nc1nccc(-c2cncnc2)n1 [BAFETINIB]	> 30 µM (inactive)
CCS(=O)(=O)N1CC(CC#N)(n2cc(-c3ncnc4[nH]ccc34)cn2)C1 [BARICITINIB]	> 30 µM (inactive)
Cc1cc2c(F)c(Oc3ncnn4cc(OC[C@@H](C)OC(=O)[C@H](C)N)c(C)c34)ccc2[nH]1 [BRIVANIB ALANINATE]	> 30 µM (inactive)
CNC(=O)c1ccc(-c2cnc3ncc(Cc4ccc5ncccc5c4)n3n2)cc1F [CAPMATINIB]	> 30 µM (inactive)
Cc1nc(N)sc1-c1ccnc(Nc2ccc(N3CCOCC3)cc2)n1 [CYC-116]	> 30 µM (inactive)
CN1CCN(c2ccc3nc(-c4c(N)c5c(F)cccc5[nH]c4=O)[nH]c3c2)CC1 [DOVITINIB]	> 30 µM (inactive)
CCn1c(-c2nonc2N)nc2c(C#CC(C)(C)O)ncc(OC[C@H]3CCCNC3)c21 [GSK-690693]	> 30 µM (inactive)
COC(=O)[C@@]1(O)C[C@H]2O[C@]1(C)n1c3ccccc3c3c4c(c5c6ccccc6n2c5c31)C(=O)NC4 [K-252A]	> 30 µM (inactive)
COc1cc2nccc(Oc3ccc(NC(=O)NC4CC4)c(Cl)c3)c2cc1C(N)=O [LENVATINIB]	> 30 µM (inactive)
Cc1cn(-c2cc(NC(=O)c3ccc(C)c(Nc4nccc(-c5cccnc5)n4)c3)cc(C(F)(F)F)c2)cn1 [NILOTINIB]	> 30 µM (inactive)
O=C(Nc1cccc(Cl)c1)Nc1ncc(CCNc2ncnc3ccsc23)s1 [SNS-314]	> 30 µM (inactive)
Nc1nc(N)c2nc(-c3cccc(O)c3)c(-c3cccc(O)c3)nc2n1 [TG100-115]	> 30 µM (inactive)

Target: Protein kinase C beta type (Homo sapiens, UniProt P05771)
Sequence (P05771 whole entry): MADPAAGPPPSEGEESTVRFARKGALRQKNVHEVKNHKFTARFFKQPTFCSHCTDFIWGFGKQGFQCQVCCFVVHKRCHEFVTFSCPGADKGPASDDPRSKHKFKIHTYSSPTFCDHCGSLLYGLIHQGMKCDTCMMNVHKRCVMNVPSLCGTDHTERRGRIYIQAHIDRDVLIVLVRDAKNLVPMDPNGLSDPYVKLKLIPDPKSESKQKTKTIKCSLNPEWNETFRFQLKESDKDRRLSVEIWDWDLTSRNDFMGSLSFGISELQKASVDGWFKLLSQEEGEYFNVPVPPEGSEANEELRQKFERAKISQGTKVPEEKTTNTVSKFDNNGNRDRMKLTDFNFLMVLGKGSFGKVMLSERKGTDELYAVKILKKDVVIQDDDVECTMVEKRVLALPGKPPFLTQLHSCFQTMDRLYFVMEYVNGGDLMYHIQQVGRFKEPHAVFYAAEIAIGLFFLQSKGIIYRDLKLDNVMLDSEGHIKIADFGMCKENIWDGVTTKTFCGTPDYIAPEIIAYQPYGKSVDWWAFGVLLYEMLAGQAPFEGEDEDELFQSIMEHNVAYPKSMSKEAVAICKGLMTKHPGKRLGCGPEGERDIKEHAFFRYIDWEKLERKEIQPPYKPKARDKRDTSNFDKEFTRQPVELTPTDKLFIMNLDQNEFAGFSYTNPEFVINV

SMILES	Kd
Cc1ccc(NC(=O)c2ccc(CN3CC[C@H](N(C)C)C3)c(C(F)(F)F)c2)cc1Nc1nccc(-c2cncnc2)n1 [BAFETINIB]	> 30 µM (inactive)
CCS(=O)(=O)N1CC(CC#N)(n2cc(-c3ncnc4[nH]ccc34)cn2)C1 [BARICITINIB]	26.3 µM (active)
Cc1cc2c(F)c(Oc3ncnn4cc(OC[C@@H](C)OC(=O)[C@H](C)N)c(C)c34)ccc2[nH]1 [BRIVANIB ALANINATE]	> 30 µM (inactive)
CNC(=O)c1ccc(-c2cnc3ncc(Cc4ccc5ncccc5c4)n3n2)cc1F [CAPMATINIB]	> 30 µM (inactive)
Cc1nc(N)sc1-c1ccnc(Nc2ccc(N3CCOCC3)cc2)n1 [CYC-116]	> 30 µM (inactive)
CN1CCN(c2ccc3nc(-c4c(N)c5c(F)cccc5[nH]c4=O)[nH]c3c2)CC1 [DOVITINIB]	> 30 µM (inactive)
CCn1c(-c2nonc2N)nc2c(C#CC(C)(C)O)ncc(OC[C@H]3CCCNC3)c21 [GSK-690693]	0.31 µM (active)
COc1cc2nccc(Oc3ccc(NC(=O)NC4CC4)c(Cl)c3)c2cc1C(N)=O [LENVATINIB]	> 30 µM (inactive)
Cc1cn(-c2cc(NC(=O)c3ccc(C)c(Nc4nccc(-c5cccnc5)n4)c3)cc(C(F)(F)F)c2)cn1 [NILOTINIB]	> 30 µM (inactive)
O=C(Nc1cccc(Cl)c1)Nc1ncc(CCNc2ncnc3ccsc23)s1 [SNS-314]	> 30 µM (inactive)
Nc1nc(N)c2nc(-c3cccc(O)c3)c(-c3cccc(O)c3)nc2n1 [TG100-115]	> 30 µM (inactive)

Target: Tyrosine-protein kinase CSK (Homo sapiens, UniProt P41240)
Sequence (P41240 whole entry): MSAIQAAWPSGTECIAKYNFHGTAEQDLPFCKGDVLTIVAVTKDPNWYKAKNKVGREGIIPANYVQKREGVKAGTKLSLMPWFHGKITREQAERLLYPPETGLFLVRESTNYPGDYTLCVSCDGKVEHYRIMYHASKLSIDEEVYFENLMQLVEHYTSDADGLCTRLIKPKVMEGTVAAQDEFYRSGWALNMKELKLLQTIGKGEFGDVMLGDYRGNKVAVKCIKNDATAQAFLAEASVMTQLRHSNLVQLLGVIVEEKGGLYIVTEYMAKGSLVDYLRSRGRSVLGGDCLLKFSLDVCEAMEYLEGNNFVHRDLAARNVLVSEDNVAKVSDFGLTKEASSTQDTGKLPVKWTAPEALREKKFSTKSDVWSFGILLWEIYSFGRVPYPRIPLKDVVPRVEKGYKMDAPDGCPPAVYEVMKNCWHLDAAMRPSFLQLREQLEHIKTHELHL

SMILES	Kd
Cc1ccc(NC(=O)c2ccc(CN3CC[C@H](N(C)C)C3)c(C(F)(F)F)c2)cc1Nc1nccc(-c2cncnc2)n1 [BAFETINIB]	2.15 µM (active)
CCS(=O)(=O)N1CC(CC#N)(n2cc(-c3ncnc4[nH]ccc34)cn2)C1 [BARICITINIB]	> 30 µM (inactive)
Cc1cc2c(F)c(Oc3ncnn4cc(OC[C@@H](C)OC(=O)[C@H](C)N)c(C)c34)ccc2[nH]1 [BRIVANIB ALANINATE]	> 30 µM (inactive)
CNC(=O)c1ccc(-c2cnc3ncc(Cc4ccc5ncccc5c4)n3n2)cc1F [CAPMATINIB]	> 30 µM (inactive)
Cc1nc(N)sc1-c1ccnc(Nc2ccc(N3CCOCC3)cc2)n1 [CYC-116]	> 30 µM (inactive)
COC(=O)[C@@]1(O)C[C@H]2O[C@]1(C)n1c3ccccc3c3c4c(c5c6ccccc6n2c5c31)C(=O)NC4 [K-252A]	> 30 µM (inactive)
COc1cc2nccc(Oc3ccc(NC(=O)NC4CC4)c(Cl)c3)c2cc1C(N)=O [LENVATINIB]	> 30 µM (inactive)
O=C(Nc1cccc(Cl)c1)Nc1ncc(CCNc2ncnc3ccsc23)s1 [SNS-314]	> 30 µM (inactive)

Target: Cyclin-dependent kinase 13 (Homo sapiens, UniProt Q14004)
Sequence (Q14004 whole entry): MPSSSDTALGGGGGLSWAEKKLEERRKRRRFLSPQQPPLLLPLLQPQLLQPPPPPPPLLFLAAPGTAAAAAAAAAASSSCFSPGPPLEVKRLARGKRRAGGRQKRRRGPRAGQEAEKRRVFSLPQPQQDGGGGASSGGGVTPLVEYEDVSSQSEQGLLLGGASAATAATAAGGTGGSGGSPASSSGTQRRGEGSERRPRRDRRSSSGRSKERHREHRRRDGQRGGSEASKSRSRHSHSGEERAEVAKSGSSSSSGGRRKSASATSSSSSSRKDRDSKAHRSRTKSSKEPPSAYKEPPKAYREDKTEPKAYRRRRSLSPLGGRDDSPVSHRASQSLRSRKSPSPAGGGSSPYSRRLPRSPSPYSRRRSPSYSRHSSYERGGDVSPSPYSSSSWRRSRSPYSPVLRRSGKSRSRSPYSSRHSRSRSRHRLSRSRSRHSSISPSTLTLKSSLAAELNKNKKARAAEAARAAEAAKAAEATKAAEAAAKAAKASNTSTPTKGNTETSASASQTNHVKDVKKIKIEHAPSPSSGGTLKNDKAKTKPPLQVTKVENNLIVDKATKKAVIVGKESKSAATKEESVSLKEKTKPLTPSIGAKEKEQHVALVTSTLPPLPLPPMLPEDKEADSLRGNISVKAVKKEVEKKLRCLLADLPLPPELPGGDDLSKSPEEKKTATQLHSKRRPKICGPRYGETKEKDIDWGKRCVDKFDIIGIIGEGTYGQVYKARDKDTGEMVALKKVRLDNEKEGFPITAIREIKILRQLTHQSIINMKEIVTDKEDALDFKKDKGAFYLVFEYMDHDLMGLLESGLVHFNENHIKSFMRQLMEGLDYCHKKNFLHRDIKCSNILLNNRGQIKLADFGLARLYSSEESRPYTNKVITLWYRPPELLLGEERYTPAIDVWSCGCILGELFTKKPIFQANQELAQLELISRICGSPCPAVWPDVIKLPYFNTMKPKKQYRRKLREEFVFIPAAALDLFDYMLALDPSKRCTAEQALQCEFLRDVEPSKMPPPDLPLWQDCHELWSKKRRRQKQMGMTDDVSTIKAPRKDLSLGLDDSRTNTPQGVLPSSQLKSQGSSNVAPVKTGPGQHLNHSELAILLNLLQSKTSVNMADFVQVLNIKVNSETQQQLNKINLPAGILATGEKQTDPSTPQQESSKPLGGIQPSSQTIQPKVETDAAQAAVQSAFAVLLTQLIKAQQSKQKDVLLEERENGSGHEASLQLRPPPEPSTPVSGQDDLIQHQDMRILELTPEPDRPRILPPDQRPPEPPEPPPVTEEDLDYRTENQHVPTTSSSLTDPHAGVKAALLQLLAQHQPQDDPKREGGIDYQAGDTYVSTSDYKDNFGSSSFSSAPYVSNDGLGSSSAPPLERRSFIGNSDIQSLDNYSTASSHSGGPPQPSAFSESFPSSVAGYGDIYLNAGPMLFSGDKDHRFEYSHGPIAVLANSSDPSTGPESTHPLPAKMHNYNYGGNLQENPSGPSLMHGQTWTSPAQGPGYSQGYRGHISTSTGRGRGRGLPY

SMILES	Kd
Cc1ccc(NC(=O)c2ccc(CN3CC[C@H](N(C)C)C3)c(C(F)(F)F)c2)cc1Nc1nccc(-c2cncnc2)n1 [BAFETINIB]	> 30 µM (inactive)
CCS(=O)(=O)N1CC(CC#N)(n2cc(-c3ncnc4[nH]ccc34)cn2)C1 [BARICITINIB]	> 30 µM (inactive)
Cc1cc2c(F)c(Oc3ncnn4cc(OC[C@@H](C)OC(=O)[C@H](C)N)c(C)c34)ccc2[nH]1 [BRIVANIB ALANINATE]	> 30 µM (inactive)
CNC(=O)c1ccc(-c2cnc3ncc(Cc4ccc5ncccc5c4)n3n2)cc1F [CAPMATINIB]	> 30 µM (inactive)
COC(=O)[C@@]1(O)C[C@H]2O[C@]1(C)n1c3ccccc3c3c4c(c5c6ccccc6n2c5c31)C(=O)NC4 [K-252A]	> 30 µM (inactive)
COc1cc2nccc(Oc3ccc(NC(=O)NC4CC4)c(Cl)c3)c2cc1C(N)=O [LENVATINIB]	> 30 µM (inactive)

Target: T3, AarF domain-containing protein kinase 1 (Homo sapiens, UniProt Q86TW2)
T3 sequence (Q86TW2 whole entry): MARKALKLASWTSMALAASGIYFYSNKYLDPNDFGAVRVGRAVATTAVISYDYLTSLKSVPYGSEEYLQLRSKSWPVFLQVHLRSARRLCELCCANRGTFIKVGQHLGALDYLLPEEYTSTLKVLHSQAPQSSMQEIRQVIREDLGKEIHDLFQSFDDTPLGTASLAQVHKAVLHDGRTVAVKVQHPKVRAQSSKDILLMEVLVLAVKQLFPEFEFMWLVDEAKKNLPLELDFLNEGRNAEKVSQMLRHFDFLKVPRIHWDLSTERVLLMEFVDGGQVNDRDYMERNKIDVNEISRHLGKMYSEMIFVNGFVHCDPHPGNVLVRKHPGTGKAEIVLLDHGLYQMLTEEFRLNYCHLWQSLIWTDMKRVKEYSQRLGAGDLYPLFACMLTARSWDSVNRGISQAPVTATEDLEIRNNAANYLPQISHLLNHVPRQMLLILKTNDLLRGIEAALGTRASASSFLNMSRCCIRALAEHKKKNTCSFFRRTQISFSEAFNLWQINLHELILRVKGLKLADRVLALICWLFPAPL

SMILES	Kd
Cc1ccc(NC(=O)c2ccc(CN3CC[C@H](N(C)C)C3)c(C(F)(F)F)c2)cc1Nc1nccc(-c2cncnc2)n1 [BAFETINIB]	> 30 µM (inactive)
CCS(=O)(=O)N1CC(CC#N)(n2cc(-c3ncnc4[nH]ccc34)cn2)C1 [BARICITINIB]	> 30 µM (inactive)
Cc1cc2c(F)c(Oc3ncnn4cc(OC[C@@H](C)OC(=O)[C@H](C)N)c(C)c34)ccc2[nH]1 [BRIVANIB ALANINATE]	> 30 µM (inactive)
CNC(=O)c1ccc(-c2cnc3ncc(Cc4ccc5ncccc5c4)n3n2)cc1F [CAPMATINIB]	> 30 µM (inactive)
Cc1nc(N)sc1-c1ccnc(Nc2ccc(N3CCOCC3)cc2)n1 [CYC-116]	0.545 µM (active)
CN1CCN(c2ccc3nc(-c4c(N)c5c(F)cccc5[nH]c4=O)[nH]c3c2)CC1 [DOVITINIB]	> 30 µM (inactive)
CCn1c(-c2nonc2N)nc2c(C#CC(C)(C)O)ncc(OC[C@H]3CCCNC3)c21 [GSK-690693]	> 30 µM (inactive)
COC(=O)[C@@]1(O)C[C@H]2O[C@]1(C)n1c3ccccc3c3c4c(c5c6ccccc6n2c5c31)C(=O)NC4 [K-252A]	6.09 µM (active)
COc1cc2nccc(Oc3ccc(NC(=O)NC4CC4)c(Cl)c3)c2cc1C(N)=O [LENVATINIB]	> 30 µM (inactive)
Cc1cn(-c2cc(NC(=O)c3ccc(C)c(Nc4nccc(-c5cccnc5)n4)c3)cc(C(F)(F)F)c2)cn1 [NILOTINIB]	> 30 µM (inactive)
O=C(Nc1cccc(Cl)c1)Nc1ncc(CCNc2ncnc3ccsc23)s1 [SNS-314]	> 30 µM (inactive)
Nc1nc(N)c2nc(-c3cccc(O)c3)c(-c3cccc(O)c3)nc2n1 [TG100-115]	> 30 µM (inactive)
